Reference: patent US10292412B2, “High solubility natural sweetener compositions” (KRAFT FOODS GLOBAL BRANDS LLC, priority 2012, dated 2019)
Values joined by “and” are separate entries in the source; they are usually repeats but may differ in a detail not shown here. Equal values may be shown once.

Assay: Example 2: solubility of rebaudioside A in liquid concentrates with varying water, acid and alcohol
Format: physicochemical
Parameters: scale not given here
Method: Liquid concentrate formulations were prepared including varying levels of rebaudioside A, water, alcohol, and acid. The solubility was measured at various concentrations of each of the components and the results are included in the tables below: […]

Response 1 Solubility (Water/Phosphoric Acid/Ethanol (190 Proof)/RebA 39.10/15.99/39.10/5.82 ml): 2 | Response 1 Solubility (Water/Phosphoric Acid/Ethanol (190 Proof)/RebA 39.10/39.10/15.99/5.82 ml): Insoluble | Response 1 Solubility (Water/Phosphoric Acid/Ethanol (190 Proof)/RebA 47.96/0.00/47.96/4.08 ml): 1 | Response 1 Solubility (Water/Phosphoric Acid/Ethanol (190 Proof)/RebA 47.96/47.96/0.00/4.08 ml): Insoluble | Response 1 Solubility (Water/Phosphoric Acid/Ethanol (190 Proof)/RebA 61.63/0.00/30.81/7.56 ml): 4 | Response 1 Solubility (Water/Phosphoric Acid/Ethanol (190 Proof)/RebA 61.63/30.81/0.00/7.56 ml): Insoluble | Response 1 Solubility (Water/Phosphoric Acid/Ethanol (190 Proof)/RebA 62.21/15.99/15.99/5.82 ml): 5 | Response 1 Solubility (Water/Phosphoric Acid/Ethanol (190 Proof)/RebA 66.26/0.00/33.13/0.60 ml): 1 | Response 1 Solubility (Water/Phosphoric Acid/Ethanol (190 Proof)/RebA 92.44/0.00/0.00/7.56 ml): 5 | Response 1 Solubility (Water/Phosphoric Acid/Ethanol (190 Proof)/RebA 99.40/0.00/0.00/0.60 ml): 3 and 2 | Response 1 Solubility (Water/Tartaric Acid/Ethanol (190 Proof)/RebA 18.70369333/21.97/51.77/7.56 ml): 1 | Response 1 Solubility (Water/Tartaric Acid/Ethanol (190 Proof)/RebA 19.2674479/6.63/71.76/2.34 ml): 2 | Response 1 Solubility (Water/Tartaric Acid/Ethanol (190 Proof)/RebA 19.2674479/14.30/62.35/4.08 ml): 2 | Response 1 Solubility (Water/Tartaric Acid/Ethanol (190 Proof)/RebA 30.1664432/27.48/41.75/0.60 ml): 1 | Response 1 Solubility (Water/Tartaric Acid/Ethanol (190 Proof)/RebA 30.81333333/4.93/56.70/7.56 ml): 2 | Response 1 Solubility (Water/Tartaric Acid/Ethanol (190 Proof)/RebA 33.13173333/0.00/66.26/0.60 ml): 1 | Response 1 Solubility (Water/Tartaric Acid/Ethanol (190 Proof)/RebA 33.2952179/19.41/41.47/5.82 ml): 1 | Response 1 Solubility (Water/Tartaric Acid/Ethanol (190 Proof)/RebA 37.40738667/29.15/25.88/7.56 ml): 1 | Response 1 Solubility (Water/Tartaric Acid/Ethanol (190 Proof)/RebA 39.9320216/13.74/45.72/0.60 ml): 1 | Response 1 Solubility (Water/Tartaric Acid/Ethanol (190 Proof)/RebA 47.9588/0.00/47.96/4.08 ml): 1 | Response 1 Solubility (Water/Tartaric Acid/Ethanol (190 Proof)/RebA 49.4338911/26.16/22.06/2.34 ml): 1 | Response 1 Solubility (Water/Tartaric Acid/Ethanol (190 Proof)/RebA 49.51702667/12.11/30.81/7.56 ml): 1 | Response 1 Solubility (Water/Tartaric Acid/Ethanol (190 Proof)/RebA 57.8023437/16.05/22.06/4.08 ml): 1 | Response 1 Solubility (Water/Tartaric Acid/Ethanol (190 Proof)/RebA 60.3328864/39.06/0.00/0.60 ml): 1 | Response 1 Solubility (Water/Tartaric Acid/Ethanol (190 Proof)/RebA 61.92/9.00/25.00/4.08 ml): 2 | Response 1 Solubility (Water/Tartaric Acid/Ethanol (190 Proof)/RebA 65.18/8.00/21.00/5.82 ml): 3 | Response 1 Solubility (Water/Tartaric Acid/Ethanol (190 Proof)/RebA 65.44/8.00/19.00/7.56 ml): 4 | Response 1 Solubility (Water/Tartaric Acid/Ethanol (190 Proof)/RebA 65.4874479/6.63/22.06/5.82 ml): 4 | Response 1 Solubility (Water/Tartaric Acid/Ethanol (190 Proof)/RebA 66.26346667/0.00/33.13/0.60 ml): 1 | Response 1 Solubility (Water/Tartaric Acid/Ethanol (190 Proof)/RebA 68.22072/24.22/0.00/7.56 ml): 2 | Response 1 Solubility (Water/Tartaric Acid/Ethanol (190 Proof)/RebA 71.18/16.00/7.00/5.82 ml): 2 | Response 1 Solubility (Water/Tartaric Acid/Ethanol (190 Proof)/RebA 75.92/3.00/17.00/4.08 ml): 4 | Response 1 Solubility (Water/Tartaric Acid/Ethanol (190 Proof)/RebA 75.92/12.00/8.00/4.08 ml): 3 | Response 1 Solubility (Water/Tartaric Acid/Ethanol (190 Proof)/RebA 76.18/11.00/7.00/5.82 ml): 4 | Response 1 Solubility (Water/Tartaric Acid/Ethanol (190 Proof)/RebA 77.0697916/18.85/0.00/4.08 ml): 2 | Response 1 Solubility (Water/Tartaric Acid/Ethanol (190 Proof)/RebA 78.92/5.00/12.00/4.08 ml): 4 | Response 1 Solubility (Water/Tartaric Acid/Ethanol (190 Proof)/RebA 84.92/3.00/8.00/4.08 ml): 5 | Response 1 Solubility (Water/Tartaric Acid/Ethanol (190 Proof)/RebA 86.3744288/13.02/0.00/0.60 ml): 1 | Response 1 Solubility (Water/Tartaric Acid/Ethanol (190 Proof)/RebA 92.44/0.00/0.00/7.56 ml): 5 | Response 1 Solubility (Water/Tartaric Acid/Ethanol (190 Proof)/RebA 99.3952/0.00/0.00/0.60 ml): 2 | Response 1 Solubility (Water/acid/alcohol/RebA 96.67/0.00/0.00/3.33 ml): 5 | Response 1 Solubility (Water/acid/alcohol/RebA 97.01/0.00/0.00/2.99 ml): 5 | Response 1 Solubility (Water/acid/alcohol/RebA 97.34/0.00/0.00/2.66 ml): 5 | Response 1 Solubility (Water/acid/alcohol/RebA 97.67/0.00/0.00/2.33 ml): 5 | Response 1 Solubility (Water/acid/alcohol/RebA 98.00/0.00/0.00/2.00 ml): 5 | Response 1 Solubility (Water/acid/alcohol/RebA 98.34/0.00/0.00/1.66 ml): 5 | Response 1 Solubility (Water/acid/alcohol/RebA 98.67/0.00/0.00/1.33 ml): 5 | Response 1 Solubility (Water/acid/alcohol/RebA 99.00/0.00/0.00/1.00 ml): 5 | Response 1 Solubility (Water/acid/alcohol/RebA 99.33/0.00/0.00/0.67 ml): 2 | Response 1 Solubility (Water/acid/alcohol/RebA 99.67/0.00/0.00/0.33 ml): 1
SMILES: C=C1C[C@@]23CC[C@H]4[C@@](C)(CCC[C@@]4(C)C(=O)O[C@@H]4O[C@H](CO)[C@@H](O)[C@H](O)[C@H]4O)[C@@H]2CC[C@]1(O[C@@H]1O[C@H](CO)[C@@H](O)[C@H](O[C@@H]2O[C@H](CO)[C@@H](O)[C@H](O)[C@H]2O)[C@H]1O[C@@H]1O[C@H](CO)[C@@H](O)[C@H](O)[C@H]1O)C3 [Reb A, rebaudioside A]
